Tested on: 922993-354-T-J3-PDC complex spheroid viability
Assay: Anticancer human tumor 922993-354-T-J3-PDC patient-derived endometrial carcinoma cell line growth inhibition [POLQ]
Conditions: for IC50: curve of first compound; for viability, T/C: stronger effect = lower value
Outline: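 Complex spheroid viability model combining PDC tumour cells with endothelial (HUVEC) and MSC stromal cells. Novobiocin, ART-558 or RP6685 were tested singly and in combination with standard and investigational anticancer drugs. Each was titrated in half-log steps from near clinical Cmax, or from 10 microM where Cmax was unknown.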

[1] = second compound 0.0316 µM, first compound 0.0316 µM
[2] = second compound 0.0316 µM, first compound 0.1 µM
[3] = second compound 0.0316 µM, first compound 0.316 µM
[4] = second compound 0.0316 µM, first compound 1 µM
[5] = second compound 0.0316 µM, first compound 3.16 µM
[6] = second compound 0.0316 µM, first compound 10 µM
[7] = second compound 0.1 µM, first compound 0.0316 µM
[8] = second compound 0.1 µM, first compound 0.1 µM
[9] = second compound 0.1 µM, first compound 0.316 µM
[10] = second compound 0.1 µM, first compound 1 µM
[11] = second compound 0.1 µM, first compound 3.16 µM
[12] = second compound 0.1 µM, first compound 10 µM
[13] = second compound 0.316 µM, first compound 0.0316 µM
[14] = second compound 0.316 µM, first compound 0.1 µM
[15] = second compound 0.316 µM, first compound 0.316 µM
[16] = second compound 0.316 µM, first compound 1 µM
[17] = second compound 0.316 µM, first compound 3.16 µM
[18] = second compound 0.316 µM, first compound 10 µM
[19] = second compound 1 µM, first compound 0.0316 µM
[20] = second compound 1 µM, first compound 0.1 µM
[21] = second compound 1 µM, first compound 0.316 µM
[22] = second compound 1 µM, first compound 1 µM
[23] = second compound 1 µM, first compound 3.16 µM
[24] = second compound 1 µM, first compound 10 µM
[25] = second compound 3.16 µM, first compound 0.0316 µM
[26] = second compound 3.16 µM, first compound 0.1 µM
[27] = second compound 3.16 µM, first compound 0.316 µM
[28] = second compound 3.16 µM, first compound 1 µM
[29] = second compound 3.16 µM, first compound 3.16 µM
[30] = second compound 3.16 µM, first compound 10 µM
[31] = second compound 10 µM, first compound 0.0316 µM
[32] = second compound 10 µM, first compound 0.1 µM
[33] = second compound 10 µM, first compound 0.316 µM
[34] = second compound 10 µM, first compound 1 µM
[35] = second compound 10 µM, first compound 3.16 µM
[36] = second compound 10 µM, first compound 10 µM
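Also: spheroids exposed to the agents for one week.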
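For viability, T/C in this document: 100% = DMSO vehicle control wells.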

CC1COCCN1c1cc(-c2ccnn2C)c2ccnc(-c3ccn[nH]3)c2n1 (stereo unspecified) + Cc1cccc(N(C)C(=O)C2C(O)CCN2c2nc(C)cc(C(F)(F)F)c2C#N)c1
IC50 (second compound 0.0316 µM): 0.167 µM
IC50 (second compound 0.1 µM): 0.137 µM
IC50 (second compound 0.316 µM): 0.197 µM
IC50 (second compound 1 µM): 0.164 µM
IC50 (second compound 3.16 µM): 0.174 µM
IC50 (second compound 10 µM): 0.166 µM
viability, T/C [1]: 99.9%
viability, T/C [2]: 63.3%
viability, T/C [3]: 35.3%
viability, T/C [4]: 10.8%
viability, T/C [5]: 10.2%
viability, T/C [6]: 9.85%
viability, T/C [7]: 96.1%
viability, T/C [8]: 58.2%
viability, T/C [9]: 28.4%
viability, T/C [10]: 13.8%
viability, T/C [11]: 8.45%
viability, T/C [12]: 10.4%
viability, T/C [13]: 97.5%
viability, T/C [14]: 75.9%
viability, T/C [15]: 32.9%
viability, T/C [16]: 8.6%
viability, T/C [17]: 9.15%
viability, T/C [18]: 10.9%
viability, T/C [19]: 105%
viability, T/C [20]: 64.6%
viability, T/C [21]: 31.4%
viability, T/C [22]: 11.2%
viability, T/C [23]: 8.14%
viability, T/C [24]: 9.87%
viability, T/C [25]: 87.2%
viability, T/C [26]: 71.5%
viability, T/C [27]: 26.9%
viability, T/C [28]: 10.6%
viability, T/C [29]: 8.05%
viability, T/C [30]: 9.86%
viability, T/C [31]: 92.5%
viability, T/C [32]: 66.5%
viability, T/C [33]: 28.7%
viability, T/C [34]: 14.1%
viability, T/C [35]: 9.35%
viability, T/C [36]: 8.57%

COc1cc2cc(C(=O)CCC(=O)O)sc2cc1OC + Cc1cccc(N(C)C(=O)C2C(O)CCN2c2nc(C)cc(C(F)(F)F)c2C#N)c1
IC50 (second compound 0.0316 µM): > 10 µM
IC50 (second compound 0.1 µM): > 10 µM
IC50 (second compound 0.316 µM): > 10 µM
IC50 (second compound 1 µM): > 10 µM
IC50 (second compound 3.16 µM): > 10 µM
IC50 (second compound 10 µM): > 10 µM
viability, T/C [1]: 101%
viability, T/C [2]: 103%
viability, T/C [3]: 101%
viability, T/C [4]: 103%
viability, T/C [5]: 105%
viability, T/C [6]: 83.8%
viability, T/C [7]: 105%
viability, T/C [8]: 105%
viability, T/C [9]: 97%
viability, T/C [10]: 102%
viability, T/C [11]: 107%
viability, T/C [12]: 90.6%
viability, T/C [13]: 102%
viability, T/C [14]: 105%
viability, T/C [15]: 101%
viability, T/C [16]: 104%
viability, T/C [17]: 108%
viability, T/C [18]: 91.3%
viability, T/C [19]: 96.8%
viability, T/C [20]: 106%
viability, T/C [21]: 105%
viability, T/C [22]: 104%
viability, T/C [23]: 102%
viability, T/C [24]: 92.3%
viability, T/C [25]: 102%
viability, T/C [26]: 101%
viability, T/C [27]: 105%
viability, T/C [28]: 103%
viability, T/C [29]: 110%
viability, T/C [30]: 90.3%
viability, T/C [31]: 104%
viability, T/C [32]: 98%
viability, T/C [33]: 101%
viability, T/C [34]: 99.6%
viability, T/C [35]: 109%
viability, T/C [36]: 93.7%

O=C(Nc1ccc(O)c(NS(=O)(=O)c2ccc(F)cc2)c1)c1ccc(-c2ccccc2)cc1 + Cc1cccc(N(C)C(=O)C2C(O)CCN2c2nc(C)cc(C(F)(F)F)c2C#N)c1
IC50 (second compound 0.0316 µM): > 10 µM
IC50 (second compound 0.1 µM): > 10 µM
IC50 (second compound 0.316 µM): > 10 µM
IC50 (second compound 1 µM): > 10 µM
IC50 (second compound 3.16 µM): > 10 µM
IC50 (second compound 10 µM): > 10 µM
viability, T/C [1]: 106%
viability, T/C [2]: 104%
viability, T/C [3]: 99.2%
viability, T/C [4]: 101%
viability, T/C [5]: 104%
viability, T/C [6]: 105%
viability, T/C [7]: 104%
viability, T/C [8]: 101%
viability, T/C [9]: 106%
viability, T/C [10]: 100%
viability, T/C [11]: 104%
viability, T/C [12]: 104%
viability, T/C [13]: 98.8%
viability, T/C [14]: 104%
viability, T/C [15]: 97.2%
viability, T/C [16]: 98.6%
viability, T/C [17]: 104%
viability, T/C [18]: 103%
viability, T/C [19]: 99.6%
viability, T/C [20]: 102%
viability, T/C [21]: 101%
viability, T/C [22]: 102%
viability, T/C [23]: 103%
viability, T/C [24]: 104%
viability, T/C [25]: 101%
viability, T/C [26]: 101%
viability, T/C [27]: 97.5%
viability, T/C [28]: 99.6%
viability, T/C [29]: 94.8%
viability, T/C [30]: 102%
viability, T/C [31]: 98.1%
viability, T/C [32]: 99.9%
viability, T/C [33]: 102%
viability, T/C [34]: 93.7%
viability, T/C [35]: 94%
viability, T/C [36]: 97%

From PubChem BioAssay AID1963830 (Molecular Pharmacology Branch, DTP, NCI, 2024)
